Data taken from patent publication US20240199542A1, “SUBSTITUTED PYRROLIDIN-2-ONES, SALTS THEREOF AND THEIR USE AS HERBICIDALLY ACTIVE SUBSTANCES” (Bayer Aktiengesellschaft, priority 2021, published 2024).

Columns and labels:
Type in all cases: in vivo
[1] = system: Echinochloa crus-galli (ECHCG); assay: Herbicidal post-emergence action; conditions: 1280 g/ha, assessed after ca. 3 weeks
Procedure, shortened: (§1)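 Plants sprayed at single-leaf stage, 2–3 wk post-sowing; aq. suspension/emulsion of WP or EC, 0.5% additive, 600 l/ha; doses 1280 or 320 g/ha. Greenhouse ~3 wk, then visual % effect vs untreated (100% = dead).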

[2] = system: Digitaria sanguinalis (DIGSA); assay: Herbicidal post-emergence action; conditions: 320 g/ha, assessed after ca. 3 weeks
Procedure, shortened: as §1

[3] = system: Lolium rigidum (LOLRI); assay: Herbicidal post-emergence action; conditions: 320 g/ha, assessed after ca. 3 weeks
Procedure, shortened: as §1

[4] = system: Avena fatua (AVEFA); assay: Herbicidal post-emergence action; conditions: 1280 g/ha, assessed after ca. 3 weeks
Procedure, shortened: as §1

[5] = system: Alopecurus myosuroides (ALOMY); assay: Herbicidal post-emergence action; conditions: 1280 g/ha, assessed after ca. 3 weeks
Procedure, shortened: as §1

[6] = system: Echinochloa crus-galli (ECHCG); assay: Herbicidal pre-emergence action; conditions: 1280 g/ha, graded after ca. 3 weeks
Procedure, shortened: (§2)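 Percent herbicidal effect, from 0% (as untreated) to 100% (plants dead), was graded visually about 3 weeks after treatment under optimal greenhouse conditions. Compounds, as WP or EC with 0.5% additive in 600 l water/ha at up to 1280 g/ha, were applied to covering soil over freshly sown seeds in sandy loam.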

[7] = system: Digitaria sanguinalis (DIGSA); assay: Herbicidal pre-emergence action; conditions: 320 g/ha, graded after ca. 3 weeks
Procedure, shortened: as §2

[8] = system: Setaria viridis (SETVI); assay: Herbicidal pre-emergence action; conditions: 1280 g/ha, graded after ca. 3 weeks
Procedure, shortened: as §2

[9] = system: Polygonum convolvulus (POLCO); assay: Herbicidal pre-emergence action; conditions: 1280 g/ha, graded after ca. 3 weeks
Procedure, shortened: as §2

[10] = system: Cyperus esculentus (CYPES); assay: Herbicidal pre-emergence action; conditions: 1280 g/ha, graded after ca. 3 weeks
Procedure, shortened: as §2

[11] = system: Lolium multiflorum (LOLMU); assay: Herbicidal pre-emergence action; conditions: 1280 g/ha, graded after ca. 3 weeks
Procedure, shortened: as §2

[12] = system: Pharbitis purpurea (PHBPU); assay: Herbicidal pre-emergence action; conditions: 1280 g/ha, graded after ca. 3 weeks
Procedure, shortened: as §2

[13] = system: Stellaria media (STEME); assay: Herbicidal pre-emergence action; conditions: 1280 g/ha, graded after ca. 3 weeks
Procedure, shortened: as §2

[14] = system: Viola tricolor (VIOTR); assay: Herbicidal pre-emergence action; conditions: graded after ca. 3 weeks
Procedure, shortened: as §2

[15] = system: Avena fatua (AVEFA); assay: Herbicidal pre-emergence action; conditions: 1280 g/ha, graded after ca. 3 weeks
Procedure, shortened: as §2

[16] = system: Veronica persica (VERPE); assay: Herbicidal pre-emergence action; conditions: 1280 g/ha, graded after ca. 3 weeks
Procedure, shortened: as §2

[17] = system: Alopecurus myosuroides (ALOMY); assay: Herbicidal pre-emergence action; conditions: 1280 g/ha, graded after ca. 3 weeks
Procedure, shortened: as §2

[18] = system: Zea Mays (ZEAMX); assay: Post-emergence effects on crop plants; conditions: 320 g/ha, crop plant
Procedure, shortened: (§3)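 Greenhouse-grown plants in sandy loam sprayed post-emergence at single-leaf stage (2–3 weeks after sowing) with WP or EC formulations plus 0.5% additive, 600 l water/ha, at rates of 320 g/ha or below. Visual damage scored ca. 3 weeks later versus untreated controls, 0% (as control) to 100% (dead).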

[19] = system: Glycine max (GLXMA); assay: Post-emergence effects on crop plants; conditions: 320 g/ha, crop plant
Procedure, shortened: as §3

[20] = system: Brassica napus (BRSNW); assay: Post-emergence effects on crop plants; conditions: application rate 320 g/ha, crop plant Brassica napus (BRSNW)
Procedure, shortened: as §3

[21] = system: Zea Mays (ZEAMX); assay: Pre-emergence effects on crop plants; conditions: 320 g/ha, crop plant
Source text: (§4) Seeds of mono- and dicotyledonous weed plants and crop plants were sown, in plastic or organic planting pots, in sandy loam and covered with soil. The compounds according to the invention, formulated in the form of wettable powders (WP) or as emulsifiable concentrates (EC), were applied to the surface of the covering soil as aqueous suspension or emulsion, with the addition of 0.5% of an additive, at an application rate of 600 1 of water/ha (converted).
(§5) Following treatment, the pots were placed in a greenhouse and kept under optimum growth conditions for the test plants. The visual grading of the damage to the test plants was carried out after ca. 3 weeks in comparison to untreated controls (herbicidal effect in percent (%): 100% effect=plants have died off, 0% effect=as control plants).
(§6) Tables C1 to C3 below show the effects of selected compounds of the general formula (I) according to table 1 on various crop plants and an application rate corresponding to 320 g/ha or below obtained by the experimental procedure mentioned above in biology section A.

[22] = system: Glycine max (GLXMA); assay: Pre-emergence effects on crop plants; conditions: 320 g/ha, crop plant
Source text: as §4, §5, §6

[23] = system: Brassica napus (BRSNW); assay: Pre-emergence effects on crop plants; conditions: 320 g/ha, crop plant
Source text: as §4, §5, §6

[24] = system: Lolium multiflorum (LOLMU); assay: Herbicidal post-emergence action; conditions: 1280 g/ha, assessed after ca. 3 weeks
Procedure, shortened: as §1

[25] = system: Stellaria media (STEME); assay: Herbicidal post-emergence action; conditions: 1280 g/ha, assessed after ca. 3 weeks
Procedure, shortened: as §1

[26] = system: Veronica persica (VERPE); assay: Herbicidal post-emergence action; conditions: 1280 g/ha, assessed after ca. 3 weeks
Procedure, shortened: as §1

[27] = system: Pharbitis purpurea (PHBPU); assay: Herbicidal post-emergence action; conditions: 1280 g/ha, assessed after ca. 3 weeks
Procedure, shortened: as §1

[28] = system: Amaranthus retroflexus (AMARE); assay: Herbicidal post-emergence action; conditions: 1280 g/ha, assessed after ca. 3 weeks
Procedure, shortened: as §1

[29] = system: Matricaria inodora (MATIN); assay: Herbicidal post-emergence action; conditions: 1280 g/ha, assessed after ca. 3 weeks
Procedure, shortened: as §1

[30] = system: Matricaria inodora (MATIN); assay: Herbicidal pre-emergence action; conditions: 1280 g/ha, graded after ca. 3 weeks
Procedure, shortened: as §2

[31] = system: Polygonum convolvulus (POLCO); assay: Herbicidal post-emergence action; conditions: 1280 g/ha, assessed after ca. 3 weeks
Procedure, shortened: as §1

[32] = system: Viola tricolor (VIOTR); assay: Herbicidal post-emergence action; conditions: 1280 g/ha, assessed after ca. 3 weeks
Procedure, shortened: as §1

| SMILES | Post-emergence activity against ECHCG [1] | Post-emergence activity against AVEFA [4] | Post-emergence activity against ALOMY [5] | Pre-emergence activity against ECHCG [6] | Pre-emergence activity against SETVI [8] | Pre-emergence activity against POLCO [9] | Pre-emergence activity against CYPES [10] | Pre-emergence activity against LOLMU [11] | Pre-emergence activity against AVEFA [15] | Pre-emergence activity against ALOMY [17] | Post-emergence activity against LOLMU [24] | Post-emergence activity against STEME [25] | Post-emergence activity against VERPE [26] | Post-emergence activity against PHBPU [27] | Post-emergence activity against AMARE [28] | also measured |
| --- | --- | --- | --- | --- | --- | --- | --- | --- | --- | --- | --- | --- | --- | --- | --- | --- |
| O=C(CC1CCC(=O)N1Cc1cccc(F)c1F)OCCOc1ccc(F)cc1 (racemic) [Example I-007] | 90% | 90% | 80% | 90% | 90% | 90% | 90% | 90% | 100% | 90% |  |  |  |  |  | Post-emergence activity against DIGSA [2]: 90%; Post-emergence activity against LOLRI [3]: 80%; Pre-emergence activity against DIGSA [7]: 90%; Pre-emergence activity against PHBPU [12]: 80%; Pre-emergence activity against STEME [13]: 80%; Pre-emergence activity against VIOTR ([14]; 320 g/ha): 90%; Pre-emergence activity against VERPE [16]: 90%; post-emergence activity against ZEAMX (crop damage) [18]: 0%; post-emergence activity against GLXMA (crop damage) [19]: 0%; post-emergence activity against BRSNW [20]: 0%; pre-emergence activity against ZEAMX (crop damage) [21]: 0%; pre-emergence activity against GLXMA (crop damage) [22]: 0%; pre-emergence activity against BRSNW (crop damage) [23]: 0% |
| Cn1nnnc1NC(=O)CC1CCC(=O)N1Cc1cccc(F)c1F (racemic) [Example I-004] | 100% | 100% | 90% | 80% | 80% | 80% | 100% | 90% | 100% | 90% | 90% | 80% | 80% |  |  |  |
| CC1(C)C(=O)C(C(=O)CC2CCC(=O)N2Cc2cccc(F)c2F)C(=O)C(C)(C)C1=O (racemic) [Example I-184] |  | 80% | 80% |  |  |  |  |  |  |  | 80% | 80% | 80% | 90% | 80% | Post-emergence activity against MATIN [29]: 90%; Pre-emergence activity against MATIN [30]: 80% |
| CC1CC(=O)C(C(=O)CC2CCC(=O)N2Cc2cccc(F)c2F)C(=O)C1 (racemic) [Example I-180] | 90% | 80% |  | 90% |  |  |  |  | 90% | 80% |  | 90% |  |  | 90% | Post-emergence activity against POLCO [31]: 80%; Post-emergence activity against VIOTR [32]: 80% |
| O=C(O)CC1CCC(=O)N1Cc1cccc(F)c1F (single isomer, unassigned) [Example I-065] |  | 90% |  |  |  | 100% |  |  | 80% |  |  |  |  | 80% |  | Pre-emergence activity against VIOTR ([14]; 1280 g/ha): 100% |
